Laboratory results as given in US11141403B2, “Benzimidazoles and indoles as taro inhibitors” (MERCK SHARP & DOHME CORP., priority 2015, dated 2021).
pIC50: −log10 of the molar value.

Tests used:
[1] = molecular target: TarO (Staphylococcus aureus, UniProt Q2G060); assay: TarO Biochemical Enzymatic Assay (LC-MS end point, C55-PP-GlcNAc (LIPID III) production); conditions: TarO membrane preparation derived from MRSA COL; read-out: TARO inhibitor IC50
Text: The pathway for the biosynthesis of wall teichoic acid (WTA) in Staphylococci involves a series of biochemical enzymatic reactions by proteins encoded by the tar genes (teichoic acid ribitol). The first enzymatic step in the synthesis of WTA is initiated by TarO, N-acetylglucosaminyl-1-P transferase, which catalyzes the transfer of N-acetyl-glucosamine-phosphate (GlcNAc-P) to an undecaprenyl phosphate (C55-P), also known as bactoprenyl phosphate, to generate C55-PP-GlcNAc (LIPID III).
The TarO biochemical enzymatic assay is a liquid chromatography-mass spectroscopy (LC-MS) based end point assay that measures C55-P-P-GlcNAc (LIPID III) production. The TarO biochemical enzymatic assay was performed in a 384-well microtiter plate (Labcyte) with a reaction volume of 20 μl. […] The linearity of C55-PP-GlcNAc concentration versus mass spectrometric signal (AC55-PP-GlcNAc/A15C-C55-PP-GlcNAc) was determined with purified C55-PP-GlcNAc. The IC50 values were calculated using the nonlinear regression analysis (sigmoidal dose response fit allowing for a variable slope) of percent inhibition data with minimum and maximum values set to 0 and 100 percent.

[2] = tested on: MRSA COL (MB5393); assay: TarO Inhibitor/β-Lactam Synergy Assay; assay type: cell-based, Staphylococcus aureus; conditions: 20 hours
Summary of the method: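 TarO inhibitors titrated 2-fold from 200 μM (2% DMSO) against MRSA COL, 5×10^5 CFU in CAMHB, with β-lactam fixed at clinical breakpoint (imipenem 4 μg/ml or dicloxacillin 8 μg/ml). Incubated 20 h at 37 °C without shaking; relative growth read as OD600.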

TarO, sequence (Q2G060 1-351): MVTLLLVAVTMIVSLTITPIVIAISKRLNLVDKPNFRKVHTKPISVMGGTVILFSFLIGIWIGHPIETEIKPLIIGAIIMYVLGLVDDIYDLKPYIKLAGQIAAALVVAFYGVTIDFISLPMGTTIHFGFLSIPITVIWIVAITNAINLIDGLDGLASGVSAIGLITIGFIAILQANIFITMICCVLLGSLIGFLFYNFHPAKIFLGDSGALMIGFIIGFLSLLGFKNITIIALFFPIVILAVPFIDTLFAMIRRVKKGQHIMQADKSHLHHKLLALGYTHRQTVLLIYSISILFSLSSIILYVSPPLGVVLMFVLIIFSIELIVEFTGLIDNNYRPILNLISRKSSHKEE

CCN(C(=O)CCn1c(C2CCCN(C(=O)OC(C)(C)C)C2)nc2ccccc21)C1CCCCC1 (stereo not shown) [Example 54]
pIC50 [1]: 6.35 | IC95 ([2]; TarO inhibitor alone, OD600, 95% growth inhibition, read-out: MITC95 TarO inhibitor alone, Bacteria: SA_MB5393): 100 µM | MITC95 TarO inhibitor + 4 μg/mL IPM; Bacteria: SA_MB5393 ([2]; in combination with 4 μg/mL imipenem, OD600): 1.56 µM | MITC95 TarO inhibitor + 8 μg/mL DCX; Bacteria: SA_MB5393 ([2]; in combination with 8 μg/mL dicloxacillin, OD600): 12.50 µM
